Results taken from patent publication US9782424B2, “Synergistic combination comprising avermectins and a NSAID for tumor inhibition” (Ectin Research AB, priority 2011, dated 2017).

Tests used:
Assay type in all cases: cell-based, human
[1] = system: colorectal cells (Colo205); test: Morphology of cultured tumor cells, Colo205; conditions: ivermectin 10 μM alone, albendazole 20 and 40 μM alone (FIG. 11)
Procedure: (§1) Commercially available human tumor cell lines were purchased from ATCC (ATCC/LGC-standards, Borás, Sweden). […] Briefly, ampoules of frozen cells were thawed by submerging into a 37° C. water bath for 45 s. […] With supernatant discarded, cell pellets were further resuspended with 5 ml complete medium into 25 cm^2 cell culture flasks (Cell+, Sarstedt, Nümbrecht, Germany). Tumor cells were cultured until sub-confluence and further sub-cultured with Trypsin (0.5%), EDTA (0.2%) solution (T4174, TE-10x, Sigma) in sterile sodium chloride. Culture media was changed two-three times a week. Culture flasks (Cell+, Sarstedt, Nümbrecht, Germany) and culture plates (Falcon/BD, Franklin Lakes, N.J., USA) were used for experimental set-ups. Cells were regularly monitored using an inverted microscope connected to a digital photo equipment (Axiovert 25 and Axiovision, Zeiss, Carl Zeiss AG, Germany) (FIG. 1). Described culture techniques and equipment have been used extensively in the laboratory
(§2) The effect of Ivermectin, selamectin, abamectin alone, or in combination with ketoconazole, albendazole, ibuprofen, diclofenac and celecoxib on the morphology of cultured human tumor cells was studied. The effect of ivermectin in the presence of increasing concentration of ivermectin was also investigated. Cells were grown into sub-confluence and then sub-cultured into 12 and 24 well plates (Sarstedt, Falcon/BD) for morphology studies, or in 96 well plates (Sarstedt, Falcon/BD) for proliferation studies.

prostate cells (LNCaP) = test: Morphology of cultured tumor cells, LNCaP
Procedure: as §1, §2

[2] = system: prostatic cell line (LNCaP); test: XTT-assay proliferation rate, prostatic cell line; conditions: LNCaP (Table 5); single agent 10 μmol/L, no IVM
Procedure: as §1
(§3) The proliferation rates of the different human tumor cell lines were studied using a method based on the conversion of a sodium salt (XTT-assay, Sigma) into a stable orange color that could be analyzed in a spectrophotometer. […] The color change was measured using a 96-well plate reader with software to calculate the absorbance at 450 nm (V-max/Softmax Pro, Molecular Devices, USA).
(§4) Increasing concentrations of substance ivermectin was added with an 8-channel pipette (Titertek, Kem-En-Tec, Taastrup, Denmark) together with sterile pipette tips (Molecular Bioproducts, San Diego, Calif., USA). Cell cultures including active substances were incubated for 24 hours (and 96 hours). Untreated wells including culture medium only served as untreated controls. The XTT-assay substrate was added and after gentle agitation using a micro plate shaker, absorbencies at 450 and 650 nm were measured. Levels from medium were subtracted and compared with control wells, using culture medium only.

[3] = system: prostatic cell line (LNCaP); test: XTT-assay proliferation rate, prostatic cell line; conditions: for Proliferation rate compared to untreated control: LNCaP (Table 5), no IVM
[4] = system: colorectal cell line (Colo205); test: XTT-assay proliferation rate, colorectal cell line Colo205; conditions: Colo205 (Table 4), no IVM
Excerpt: Commercially available human tumor cell lines were purchased from […], Borás, Sweden). Cell lines from urinary bladder (UM-UC-3, #CRL-1749), colorectal carcinoma (Colo205, #CCL-222 and HT29, #HTB-38), prostate carcinoma (LNCaP, #CRL-1740) and breast carcinoma (ZR-75-1, #CRL-1500) were purchased and stored in liquid nitrogen. […] Tumor cell lines were handled aseptically using a laminar airflow (LAF) bench (Holten 2448, Ninolab, Sweden) and stored in a liquid nitrogen tank and were initiated in culture as previously described (Falk P. Experimental models of the peritoneal environment: Effects of TGF-beta and Hyaluronan. Göteborg: University of Gothenburg; 2008). Briefly, ampoules of frozen cells were thawed by submerging into a 37° C. water bath for 45 s. […] Culture media was changed two-three times a week. Culture flasks (Cell+, Sarstedt, Nümbrecht, Germany) and culture plates (Falcon/BD, Franklin Lakes, N.J., USA) were used for experimental set-ups. […] Described culture techniques and equipment have been used extensively in the laboratory The proliferation rates of the different human tumor cell lines were studied using a method based on the conversion of a sodium salt (XTT-assay, Sigma) into a stable orange color that could be analyzed in a spectrophotometer. The color change is proportional to the mitochondrial dehydrogenase activity resulting in an effective technique for measuring cell toxicity (Roehm N W, Rodgers […], Glasebrook A L. An improved colorimetric assay for cell proliferation and viability utilizing the tetrazolium salt XTT. […] The color change was measured using a 96-well plate reader with software to calculate the absorbance at 450 nm (V-max/Softmax Pro, Molecular Devices, USA). […] RPMI 1640 and EMEM without phenol red was used during the experiments to reduce the red color background signal in the XTT-assay. […] Untreated wells including culture medium only served as untreated controls. The XTT-assay substrate was added and after gentle agitation using a micro plate shaker, absorbencies at 450 and 650 nm were measured. Levels from medium were subtracted and compared with control wells, using culture medium only.

[5] = system: urinary bladder cell line (UM-UC-3); test: XTT-assay proliferation rate, urinary bladder cell line; conditions: UM-UC-3 (Table 3), no IVM
Procedure: as §1, §3, §4

[6] = system: breast cell line (ZR-75-1); test: XTT-assay proliferation rate, breast cell line; conditions: ZR-75-1 (Table 6), no IVM
Procedure: as §1, §3, §4

| SMILES | Decreased growth of cells, substances tested alone [1] | Effect on morphology (prostate cells (LNCaP); ketoconazole 10 μM) | Effect on morphology (prostate cells (LNCaP); ketoconazole 20 and 40 μM) | Proliferation rate compared to untreated control [2] [%] | Proliferation rate compared to untreated control ([3]; single agent 10 μmol/L, listed as Ket) [%] | Proliferation rate compared to untreated control ([3]; single agent 20 μmol/L) [%] | Proliferation rate compared to untreated control ([3]; single agent 40 μmol/L) [%] | Effect on proliferation rate ([3]; LNCaP, ketoconazole alone at 20 and 40 μM) | Proliferation rate compared to medium control ([4]; single agent 10 μmol/L) [%] | Proliferation rate compared to medium control ([4]; single agent 20 μmol/L) [%] | Proliferation rate compared to medium control ([4]; single agent 40 μmol/L) [%] | Proliferation rate compared to untreated medium control ([5]; single agent 10 μmol/L) [%] | Proliferation rate compared to untreated medium control ([5]; single agent 20 μmol/L) [%] | Proliferation rate compared to untreated medium control ([5]; single agent 40 μmol/L) [%] | Proliferation rate compared to untreated control ([6]; single agent 10 μmol/L) [%] | Proliferation rate compared to untreated control ([6]; single agent 20 μmol/L) [%] | Proliferation rate compared to untreated control ([6]; single agent 40 μmol/L) [%] |
| --- | --- | --- | --- | --- | --- | --- | --- | --- | --- | --- | --- | --- | --- | --- | --- | --- | --- |
| CCCSc1ccc2nc(NC(=O)OC)[nH]c2c1 [albendazole, Methyl[6-(propylthio)-1H-benzoimidazol-2-yl]carbamate] | not seen | – | – | – | – | – | – | – | – | – | – | – | – | – | – | – | – |
| CC(=O)N1CCN(c2ccc(OC[C@H]3CO[C@](Cn4ccnc4)(c4ccc(Cl)cc4Cl)O3)cc2)CC1 [ketoconazole, 1-[4-(4-{[(2R,4S)-2-(2,4-Dichlorophenyl)-2-(1H-imidazol-1-ylmethyl)-1,3-dioxolan-4-yl]methoxy}phenyl)piperazin-1-yl]ethan-1-one] | – | not microscopically affected | did affect morphology | 104.6±3.0 | 104.6 ± 3.0 | 76.3 ± 2.3 | 68.0 ± 1.8 | decreased the proliferation rate | 94.8 ± 6.3 | 93.4 ± 8.1 | 72.1 ± 15.5 | 95 ± 6 | 99 ± 6 | 103 ± 2 | – | – | – |
| Cc1ccc(-c2cc(C(F)(F)F)nn2-c2ccc(S(N)(=O)=O)cc2)cc1 [celecoxib, 4-[5-(4-methylphenyl)-3-(trifluoromethyl)pyrazol-1-yl]benzenesulfonamide] | – | – | – | – | – | – | – | – | 98.7 ± 15.8 | 94.8 ± 2.5 | 94.5 ± 6.6 | 103 ± 9 | 100 ± 6 | 106 ± 1 | 116.5 ± 4.4 | 110.6 ± 13.3 | 95.2 ± 4.9 |
| CC(C)Cc1ccc(C(C)C(=O)O)cc1 (racemic) [ibuprofen, (RS)-2-(4-(2-methylpropyl)phenyl)propanoic acid] | – | – | – | – | – | – | – | – | 90.1 ± 8.8 | 92.2 ± 8.2 | 90.8 ± 6.3 | 103 ± 2 | 106 ± 2 | 99 ± 3 | 115.2 ± 3.8 | 116.2 ± 1.9 | 108.7 ± 6.7 |
